According to patent US8962530B2, “Inflammatory bowel disease therapies” (Regents of the University of Colorado, priority 2007, dated 2015):

How the values were obtained:
TNBS-induced colitis = assay: Weight loss in TNBS-colitis model; assay type: in vivo; details: TNBS-colitis mice; for initial body weight loss: compared to vehicle-control treated TNBS-colitis animals; for average body weight (of initial body weight) at day 3: vehicle-treated approximately 92%
Source text: The effectiveness of compounds and methods of the present invention on intestinal barrier protection and treatment of inflammatory bowel disease (IBD) in TNBS (2,4,6-trinitrobenzene sulfonic acid)-induced colitis, an established animal model of inflammatory bowel disease, was examined. TNBS-induced colitis was induced in mice using a modification of techniques previously described. (See Morris et al (1989) Gastroenterology 96:795-803; Boirivant et al (1998) J Exp Med 188:1929-1939; Karhausen et al (2004) J Clin Invest 114:1098-1106.) Mice were shaved on the abdomen (causing total depletion of hair and microlesions) and were then sensitized to subsequent treatment by epicutaneous application of 1% TNBS (Sigma-Aldrich) in 100% ethanol on day minus 7. Seven days later, on day 0, animals were sedated with a 2.5% Tribromoethanol solution in phosphate-buffered saline (14 μl/g body weight), followed by intrarectal administration of a 2.5% TNBS solution in 50% ethanol (5 μl/g body weight). Administration of the 2.5% TNBS solution was carried out using an epidural catheter ([…] Plus Epidural Catheter, Arrow International), which was inserted approximately 6 cm ab ano followed by release of the TNBS solution. To ensure the continuance of the TNBS solution in the colon, mice were suspended in a vertical position for at least 5 minutes following administration. Vehicle control animals received a corresponding volume of 50% ethanol solution alone. Unless otherwise indicated, compounds of the invention were administered to animals intraperitoneally (i.p.) as a solution. Animals were dosed with compound (40 mg/kg/day or 20 mg/kg/day) on day minus 1, day 0, and day 1, or exclusively on day 0 and day 1, by i.p. injection. On day 0, TNBS treatment was performed on animals 4 hours after injection of compound. The effect of methods and compounds of the present invention on weight loss associated with inflammatory bowel disease was studied using an established animal model of colitis (described above in Example 1). Monitoring weight loss is a reliable method to assess TNBS-colitis severity in this animal model, as previously described. (See Neurath et al (2000) Int Rev Immunol 19:51-62.) Animals were administered Compound A (20 mg/kg or 40 mg/kg, i.p.) or vehicle control on day minus 1, day 0, and day 1. TNBS-colitis was induced in mice on day 0, as described above in Example 1. Body weight of the mice was monitored following induction of TNBS-colitis. […] Animal body weight was monitored each day for 3 days.

TNFα mRNA = assay: TNFα expression in colonic mucosal scrapings by real-time PCR, TNBS-colitis model; assay type: in vivo; details: TNBS-colitis mice; 40 mg/kg i.p. on day minus 1, day 0, day 1; day three; compared to non-treated TNBS-colitis mice; p<0.01
Source text: The effectiveness of compounds and methods of the present invention on intestinal barrier protection and treatment of inflammatory bowel disease (IBD) in TNBS (2,4,6-trinitrobenzene sulfonic acid)-induced colitis, an established animal model of inflammatory bowel disease, was examined. TNBS-induced colitis was induced in mice using a modification of techniques previously described. (See Morris et al (1989) Gastroenterology 96:795-803; Boirivant et al (1998) J Exp Med 188:1929-1939; Karhausen et al (2004) J Clin Invest 114:1098-1106.)
Mice were shaved on the abdomen (causing total depletion of hair and microlesions) and were then sensitized to subsequent treatment by epicutaneous application of 1% TNBS (Sigma-Aldrich) in 100% ethanol on day minus 7. Seven days later, on day 0, animals were sedated with a 2.5% Tribromoethanol solution in phosphate-buffered saline (14 μl/g body weight), followed by intrarectal administration of a 2.5% TNBS solution in 50% ethanol (5 μl/g body weight). […]
Amplification cSycle parameters were as follows: 3 minutes at 95° C.; 40 cycles of 45 seconds at 95° C., 30 seconds at 58° C., 30 seconds at 72° C.; followed by repetitive melting cycles to establish amplification product specificity. Comparison of gene expression in a semi-quantitative manner was performed based on the mathematical model of Pfaffl. […]

[1] = 20 mg/kg i.p. on day minus 1, day 0, day 1
[2] = 40 mg/kg i.p. on day minus 1, day 0, day 1

For `O=C(O)CNC(=O)c1ncc2cc(Sc3ccccc3)ccc2c1O` [Compound A, [(4-Hydroxy-7-phenylsulfanyl-isoquinoline-3-carbonyl)-amino]-acetic acid], the “initial body weight loss” value (TNBS-induced colitis; [1]) was “reduction in the extent of initial body weight loss”, the “average body weight (of initial body weight) at day 3” value (TNBS-induced colitis; [1]) was “approximately 95%” and the “body weight gain (recovery from weight loss) by day 3” value (TNBS-induced colitis; 20 mg/kg or 40 mg/kg i.p. on day minus 1, day 0, day 1, compared to vehicle/control-treated TNBS-colitis animals) was “greater increase in body weight gain”. For the same molecule, the “initial body weight loss” value (TNBS-induced colitis; [2]) was “reduction in the extent of initial body weight loss”, the “average body weight (of initial body weight) at day 3” value (TNBS-induced colitis; [2]) was ~97% and the “TNFα mRNA levels in colonic mucosal scrapings” value (TNFα mRNA) was “significant decrease”.
